Measurements as given in ChEMBL document CHEMBL1201862, “PubChem BioAssay data set” (2004).
The source made the active and inactive calls.

What was measured:
Hexokinase-1 = biological target: T1, Hexokinase-1 (Homo sapiens, UniProt P19367); assay: SAR analysis of small molecule inhibitors of hexokinase domain containing I (HKDC1) in the hexokinase 1 selectivity assay. [Related pubchem assays (depositor defined):AID493160, AID493190]; assay type: functional
T1 sequence (P19367 whole entry): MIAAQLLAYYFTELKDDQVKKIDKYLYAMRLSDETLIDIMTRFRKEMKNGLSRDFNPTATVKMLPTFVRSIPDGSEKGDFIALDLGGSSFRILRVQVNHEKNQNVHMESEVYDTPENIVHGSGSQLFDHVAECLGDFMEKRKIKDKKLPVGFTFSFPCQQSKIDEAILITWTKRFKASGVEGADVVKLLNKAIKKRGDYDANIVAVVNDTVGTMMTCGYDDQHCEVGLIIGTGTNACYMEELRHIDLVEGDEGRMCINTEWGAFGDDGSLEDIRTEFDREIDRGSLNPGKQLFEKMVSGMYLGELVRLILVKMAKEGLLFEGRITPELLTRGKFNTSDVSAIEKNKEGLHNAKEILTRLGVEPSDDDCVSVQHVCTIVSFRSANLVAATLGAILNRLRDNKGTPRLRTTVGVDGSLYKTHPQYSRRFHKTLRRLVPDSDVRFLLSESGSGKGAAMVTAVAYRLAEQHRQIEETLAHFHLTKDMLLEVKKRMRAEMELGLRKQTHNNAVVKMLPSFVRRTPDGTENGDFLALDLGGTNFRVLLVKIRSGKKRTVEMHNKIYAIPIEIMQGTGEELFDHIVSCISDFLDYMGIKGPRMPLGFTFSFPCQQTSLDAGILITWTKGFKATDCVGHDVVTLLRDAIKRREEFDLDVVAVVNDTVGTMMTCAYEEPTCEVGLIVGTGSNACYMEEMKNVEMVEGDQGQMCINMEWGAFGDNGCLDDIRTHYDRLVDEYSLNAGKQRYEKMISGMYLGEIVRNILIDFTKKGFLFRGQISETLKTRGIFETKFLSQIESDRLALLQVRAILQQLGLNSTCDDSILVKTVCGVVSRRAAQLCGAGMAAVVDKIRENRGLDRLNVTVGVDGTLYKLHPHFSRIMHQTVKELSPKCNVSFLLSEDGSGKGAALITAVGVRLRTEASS

Hexokinase HKDC1 = biological target: T2, Hexokinase HKDC1 (Homo sapiens, UniProt Q2TB90); assay: SAR analysis of small molecule inhibitors of hexokinase domain containing I (HKDC1). [Related pubchem assays (depositor defined):AID493160, AID493190]; assay type: functional
T2 sequence (Q2TB90 whole entry): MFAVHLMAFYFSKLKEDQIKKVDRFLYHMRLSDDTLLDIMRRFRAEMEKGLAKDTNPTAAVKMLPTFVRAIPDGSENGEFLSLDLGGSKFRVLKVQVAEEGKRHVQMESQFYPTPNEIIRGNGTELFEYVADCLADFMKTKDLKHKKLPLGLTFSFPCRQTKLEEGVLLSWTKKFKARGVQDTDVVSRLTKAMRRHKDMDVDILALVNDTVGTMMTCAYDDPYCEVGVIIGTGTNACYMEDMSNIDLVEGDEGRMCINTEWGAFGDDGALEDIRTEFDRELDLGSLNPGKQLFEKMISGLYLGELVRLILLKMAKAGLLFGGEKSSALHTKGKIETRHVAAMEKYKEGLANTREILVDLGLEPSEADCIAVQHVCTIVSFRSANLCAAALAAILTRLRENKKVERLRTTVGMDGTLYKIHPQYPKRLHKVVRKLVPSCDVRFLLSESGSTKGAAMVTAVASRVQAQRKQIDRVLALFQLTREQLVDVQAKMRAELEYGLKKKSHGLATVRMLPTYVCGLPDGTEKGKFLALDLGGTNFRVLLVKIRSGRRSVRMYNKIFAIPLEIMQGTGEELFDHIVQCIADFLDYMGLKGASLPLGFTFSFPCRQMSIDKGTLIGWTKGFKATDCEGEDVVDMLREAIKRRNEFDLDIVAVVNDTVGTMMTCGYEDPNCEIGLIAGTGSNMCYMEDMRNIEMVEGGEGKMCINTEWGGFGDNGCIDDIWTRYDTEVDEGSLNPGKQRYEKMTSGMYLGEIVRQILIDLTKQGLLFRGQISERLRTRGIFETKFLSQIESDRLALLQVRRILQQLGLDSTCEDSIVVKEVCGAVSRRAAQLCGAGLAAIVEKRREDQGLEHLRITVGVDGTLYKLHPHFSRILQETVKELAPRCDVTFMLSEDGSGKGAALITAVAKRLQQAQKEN

ORF 73 = biological target: T3, ORF 73 (Human herpesvirus 8, UniProt O40947); assay: KSHV LANA DNA-binding disruption – biochemical, fluorescence polarization, cherry-picked samples, dose response (AID 504725); design: species or system Human gammaherpesvirus 8;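 note: fluorescence polarization of a labeled DNA duplex reporting LANA DNA binding; potency is for inhibitors that block LANA binding to the DNA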
T3 sequence (O40947 whole entry): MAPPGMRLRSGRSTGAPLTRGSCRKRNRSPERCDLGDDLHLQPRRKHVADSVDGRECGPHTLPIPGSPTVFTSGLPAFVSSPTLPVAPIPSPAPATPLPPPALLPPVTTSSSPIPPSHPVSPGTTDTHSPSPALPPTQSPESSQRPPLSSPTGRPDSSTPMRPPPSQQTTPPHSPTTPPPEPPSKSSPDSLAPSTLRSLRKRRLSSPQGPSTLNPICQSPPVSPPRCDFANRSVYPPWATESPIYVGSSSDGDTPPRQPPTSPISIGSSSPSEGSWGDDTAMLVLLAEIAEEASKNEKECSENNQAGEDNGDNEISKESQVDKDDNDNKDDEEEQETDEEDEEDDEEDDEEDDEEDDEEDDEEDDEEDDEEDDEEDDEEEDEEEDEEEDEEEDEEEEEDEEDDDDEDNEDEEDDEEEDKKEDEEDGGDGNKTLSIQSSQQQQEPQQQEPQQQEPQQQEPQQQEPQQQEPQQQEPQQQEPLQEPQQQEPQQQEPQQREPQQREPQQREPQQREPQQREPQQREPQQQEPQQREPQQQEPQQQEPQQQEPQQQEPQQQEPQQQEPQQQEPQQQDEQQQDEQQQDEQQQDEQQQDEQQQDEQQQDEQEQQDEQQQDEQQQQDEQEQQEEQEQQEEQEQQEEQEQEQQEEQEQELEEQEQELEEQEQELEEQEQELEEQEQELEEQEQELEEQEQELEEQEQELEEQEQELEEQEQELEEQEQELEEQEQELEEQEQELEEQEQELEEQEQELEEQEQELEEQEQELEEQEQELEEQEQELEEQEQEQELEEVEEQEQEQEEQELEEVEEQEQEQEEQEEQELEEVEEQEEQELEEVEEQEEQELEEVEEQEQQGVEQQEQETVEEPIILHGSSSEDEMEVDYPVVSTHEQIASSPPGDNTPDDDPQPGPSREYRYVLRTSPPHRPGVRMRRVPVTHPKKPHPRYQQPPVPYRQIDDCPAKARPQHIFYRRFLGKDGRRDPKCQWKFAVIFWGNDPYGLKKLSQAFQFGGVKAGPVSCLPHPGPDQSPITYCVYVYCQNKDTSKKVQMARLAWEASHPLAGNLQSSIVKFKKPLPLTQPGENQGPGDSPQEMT

[1] = biological target: T4, Corticotropin-releasing factor receptor 2/Corticotropin-releasing factor-binding protein (Homo sapiens, UniProt P24387+Q13324); assay: activators of CRF receptor 2 with binding protein – uHTS hits, confirmation (AID 602473); assay type: functional; conditions: read-out: EC50_Mean
T4 sequence (Q13324 whole entry): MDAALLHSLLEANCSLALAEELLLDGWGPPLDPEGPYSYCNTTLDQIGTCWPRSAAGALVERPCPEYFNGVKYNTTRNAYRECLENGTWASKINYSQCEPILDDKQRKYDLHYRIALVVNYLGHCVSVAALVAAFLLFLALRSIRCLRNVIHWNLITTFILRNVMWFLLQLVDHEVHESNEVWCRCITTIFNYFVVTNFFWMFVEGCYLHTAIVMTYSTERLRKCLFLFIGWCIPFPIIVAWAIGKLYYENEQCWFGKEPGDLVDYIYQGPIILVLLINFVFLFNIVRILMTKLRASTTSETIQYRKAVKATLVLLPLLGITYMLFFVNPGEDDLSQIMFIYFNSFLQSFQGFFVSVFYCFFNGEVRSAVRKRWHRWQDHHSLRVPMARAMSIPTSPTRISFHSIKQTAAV
T4 sequence (P24387 whole entry): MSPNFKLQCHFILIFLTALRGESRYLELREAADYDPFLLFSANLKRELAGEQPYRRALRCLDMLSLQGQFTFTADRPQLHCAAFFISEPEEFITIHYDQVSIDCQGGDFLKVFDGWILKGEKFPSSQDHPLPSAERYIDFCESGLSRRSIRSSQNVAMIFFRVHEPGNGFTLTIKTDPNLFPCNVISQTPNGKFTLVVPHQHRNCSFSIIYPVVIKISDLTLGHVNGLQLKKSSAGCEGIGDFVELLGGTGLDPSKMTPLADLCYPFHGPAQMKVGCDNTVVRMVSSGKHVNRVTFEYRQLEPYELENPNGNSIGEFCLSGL

Keap1/Nrf2 = Keap1/Nrf2 (Homo sapiens, UniProt Q14145); assay: disruptors of Keap1 binding to Nrf2 peptide – biochemical, fluorescence polarization, cherry-picked samples, dose response (AID 588683)
Chain of Keap1/Nrf2 (Q16236 whole entry): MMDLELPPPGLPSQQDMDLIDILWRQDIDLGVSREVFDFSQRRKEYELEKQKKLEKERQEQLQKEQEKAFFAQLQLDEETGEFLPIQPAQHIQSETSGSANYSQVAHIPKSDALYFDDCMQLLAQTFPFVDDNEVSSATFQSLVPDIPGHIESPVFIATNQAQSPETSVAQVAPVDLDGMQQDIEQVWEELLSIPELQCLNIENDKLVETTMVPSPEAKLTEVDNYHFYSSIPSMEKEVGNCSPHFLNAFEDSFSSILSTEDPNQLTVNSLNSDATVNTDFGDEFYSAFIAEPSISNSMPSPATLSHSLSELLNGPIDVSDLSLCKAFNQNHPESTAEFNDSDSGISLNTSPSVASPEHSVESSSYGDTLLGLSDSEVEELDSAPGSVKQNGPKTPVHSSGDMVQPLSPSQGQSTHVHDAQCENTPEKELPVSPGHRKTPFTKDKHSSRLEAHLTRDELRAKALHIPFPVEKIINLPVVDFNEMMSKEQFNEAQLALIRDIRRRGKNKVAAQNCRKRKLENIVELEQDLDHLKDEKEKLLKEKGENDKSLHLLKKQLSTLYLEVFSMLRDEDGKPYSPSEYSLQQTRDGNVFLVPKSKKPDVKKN
Chain of Keap1/Nrf2 (Q14145 whole entry): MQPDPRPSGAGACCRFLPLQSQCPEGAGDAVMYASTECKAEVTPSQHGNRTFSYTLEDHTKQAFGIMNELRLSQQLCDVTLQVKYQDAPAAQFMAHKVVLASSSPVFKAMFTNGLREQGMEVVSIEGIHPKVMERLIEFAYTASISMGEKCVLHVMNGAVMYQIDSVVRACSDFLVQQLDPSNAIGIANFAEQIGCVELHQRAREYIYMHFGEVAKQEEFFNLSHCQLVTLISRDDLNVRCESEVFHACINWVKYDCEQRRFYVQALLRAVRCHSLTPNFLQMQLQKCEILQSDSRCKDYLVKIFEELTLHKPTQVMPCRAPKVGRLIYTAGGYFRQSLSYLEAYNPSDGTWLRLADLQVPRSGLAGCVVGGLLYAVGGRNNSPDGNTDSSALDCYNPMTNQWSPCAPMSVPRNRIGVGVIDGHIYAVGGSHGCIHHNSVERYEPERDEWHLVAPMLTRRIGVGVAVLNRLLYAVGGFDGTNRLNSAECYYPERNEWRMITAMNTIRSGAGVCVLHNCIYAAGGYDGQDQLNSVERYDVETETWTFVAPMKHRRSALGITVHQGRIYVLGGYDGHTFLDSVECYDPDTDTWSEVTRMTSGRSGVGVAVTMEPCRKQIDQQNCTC

[2] = biological target: DNA dC->dU-editing enzyme APOBEC-3G (Homo sapiens, UniProt Q9HC16); assay: Dose Response confirmation of small molecule APOBEC3G DNA Deaminase Inhibitors via a fluorescence-based single-stranded DNA deaminase assay. [Related pubchem assays (depositor defined):AID493012, AID493028]; assay type: functional
Chain of DNA dC->dU-editing enzyme APOBEC-3G (Q9HC16 whole entry, the tested form may be a part): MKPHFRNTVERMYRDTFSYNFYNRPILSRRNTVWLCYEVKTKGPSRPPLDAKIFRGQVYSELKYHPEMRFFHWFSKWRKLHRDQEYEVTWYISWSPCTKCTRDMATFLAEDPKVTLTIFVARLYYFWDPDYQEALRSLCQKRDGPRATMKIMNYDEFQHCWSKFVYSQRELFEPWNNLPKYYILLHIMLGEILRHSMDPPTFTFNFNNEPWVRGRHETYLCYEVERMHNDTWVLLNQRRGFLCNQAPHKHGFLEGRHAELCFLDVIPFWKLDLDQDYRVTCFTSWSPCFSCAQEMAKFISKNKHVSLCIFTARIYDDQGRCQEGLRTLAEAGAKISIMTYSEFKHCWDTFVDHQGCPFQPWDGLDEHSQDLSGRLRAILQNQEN

[3] = biological target: T5, Carboxy-terminal domain RNA polymerase II polypeptide A small phosphatase 1 (Homo sapiens, UniProt Q9GZU7); assay: CTDSP1 inhibitors, concentration-response, biochemical, absorbance readout, ultra-high-throughput screen actives (AID 540297); assay type: functional
T5 sequence (Q9GZU7 whole entry): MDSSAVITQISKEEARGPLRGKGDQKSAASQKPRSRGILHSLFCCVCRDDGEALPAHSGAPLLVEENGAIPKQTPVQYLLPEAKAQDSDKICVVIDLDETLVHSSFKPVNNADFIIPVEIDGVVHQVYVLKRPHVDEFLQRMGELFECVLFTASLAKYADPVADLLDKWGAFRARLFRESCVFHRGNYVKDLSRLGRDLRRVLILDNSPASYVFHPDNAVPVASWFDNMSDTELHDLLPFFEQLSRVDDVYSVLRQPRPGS

[4] = biological target: T6, Small ubiquitin-related modifier 1 (Homo sapiens, UniProt P63165); assay: SUMO1 protein-protein binding blockers, potency – biochemical, FRET, dose response (AID 624383); assay type: functional; conditions: read-out: IC50_Mean
T6 sequence (P63165 whole entry): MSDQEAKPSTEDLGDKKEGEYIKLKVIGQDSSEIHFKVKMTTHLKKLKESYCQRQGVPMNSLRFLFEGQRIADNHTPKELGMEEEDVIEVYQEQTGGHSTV

[5] = biological target: T7, Apoptotic protease-activating factor 1 (Homo sapiens, UniProt O14727); assay: activation of Apaf-1 mediated apoptosis – fluorescent, uHTS hits, dose response (AID 588554); assay type: functional
T7 sequence (O14727 whole entry): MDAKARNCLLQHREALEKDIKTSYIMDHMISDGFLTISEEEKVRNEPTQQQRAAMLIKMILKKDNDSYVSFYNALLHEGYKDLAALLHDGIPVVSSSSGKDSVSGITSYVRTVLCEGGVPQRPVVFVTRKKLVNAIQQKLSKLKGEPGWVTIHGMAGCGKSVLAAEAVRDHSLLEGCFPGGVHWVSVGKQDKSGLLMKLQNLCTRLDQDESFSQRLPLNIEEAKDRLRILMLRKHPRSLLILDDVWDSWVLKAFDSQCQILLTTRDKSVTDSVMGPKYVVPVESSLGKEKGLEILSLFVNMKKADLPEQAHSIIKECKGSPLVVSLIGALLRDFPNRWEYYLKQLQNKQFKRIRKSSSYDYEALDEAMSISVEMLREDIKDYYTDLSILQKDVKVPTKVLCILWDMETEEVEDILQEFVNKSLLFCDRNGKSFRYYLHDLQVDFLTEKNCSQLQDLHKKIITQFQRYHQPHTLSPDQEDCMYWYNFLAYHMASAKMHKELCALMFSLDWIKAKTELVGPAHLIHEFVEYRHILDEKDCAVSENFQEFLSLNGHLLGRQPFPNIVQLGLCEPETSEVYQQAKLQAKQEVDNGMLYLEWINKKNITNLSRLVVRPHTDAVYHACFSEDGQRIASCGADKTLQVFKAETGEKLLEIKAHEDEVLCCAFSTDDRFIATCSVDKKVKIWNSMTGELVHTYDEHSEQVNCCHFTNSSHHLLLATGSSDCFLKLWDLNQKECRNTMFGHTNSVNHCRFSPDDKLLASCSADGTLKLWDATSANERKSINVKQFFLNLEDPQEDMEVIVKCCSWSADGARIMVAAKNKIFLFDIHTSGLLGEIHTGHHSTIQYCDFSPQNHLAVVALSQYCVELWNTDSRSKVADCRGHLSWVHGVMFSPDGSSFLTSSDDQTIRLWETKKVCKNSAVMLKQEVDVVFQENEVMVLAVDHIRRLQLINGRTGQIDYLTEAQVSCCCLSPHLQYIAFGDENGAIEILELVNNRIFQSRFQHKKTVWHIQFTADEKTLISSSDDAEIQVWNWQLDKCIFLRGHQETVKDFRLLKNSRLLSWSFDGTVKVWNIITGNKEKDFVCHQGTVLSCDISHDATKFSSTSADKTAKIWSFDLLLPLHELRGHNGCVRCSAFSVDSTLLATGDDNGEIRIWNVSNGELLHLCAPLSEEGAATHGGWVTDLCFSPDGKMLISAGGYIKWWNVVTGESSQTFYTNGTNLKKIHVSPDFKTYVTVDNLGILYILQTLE

[6] = biological target: T6, Small ubiquitin-related modifier 1; assay: SUMO1 protein interaction blockers, potency – biochemical, fluorescence polarization, uHTS hits, dose response (AID 624382); assay type: functional; conditions: read-out: IC50_Mean
[7] = biological target: DNA dC->dU-editing enzyme APOBEC-3A (Homo sapiens, UniProt P31941); assay: A3A deaminase inhibition for selectivity – biochemical, dose response (AID 504722); assay type: functional
Chain of DNA dC->dU-editing enzyme APOBEC-3A (P31941 whole entry): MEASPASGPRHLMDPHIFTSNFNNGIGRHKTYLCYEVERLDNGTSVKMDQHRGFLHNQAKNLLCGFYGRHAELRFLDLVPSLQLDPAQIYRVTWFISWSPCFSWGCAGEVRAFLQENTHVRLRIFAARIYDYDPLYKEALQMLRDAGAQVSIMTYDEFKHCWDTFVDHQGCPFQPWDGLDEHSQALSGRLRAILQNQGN

O=c1c2ccccc2nc(/C=C/c2ccc(O)cc2)n1Cc1ccccc1
IC50 (Hexokinase-1): > 80 µM (inactive)
IC50 (Hexokinase HKDC1): > 80 µM (inactive)

CCC1(c2ccccc2)NC(=O)N(CC(=O)Nc2ccc(OC)nc2)C1=O (stereo not drawn)
AC50 (ORF 73): 8.04 µM (active)
EC50 [1]: 18.6 µM (active)
AC50 (Keap1/Nrf2): 5.31 µM (active)

Cc1cc[n+](-c2[n-]c(=O)sc2/C=N/NC(=O)c2ccccc2)cc1C
AC50 (ORF 73): 13.3 µM (active)
AC50 (Keap1/Nrf2): 11.8 µM (active)

C=C(C)C(=O)Nc1cccc(C2=NOC3(C2)C[C@@H](C(N)=O)N(C(=O)c2cc([N+](=O)[O-])cc([N+](=O)[O-])c2C)C3)c1 (stereo partly drawn)
IC50 [2]: 14 µM (active)
IC50 [3]: 4.59 µM (active)
IC50 [4]: 8.54 µM (active)
EC50 [5]: 10.8 µM (active)
IC50 [6]: > 66.6 µM (inactive)
IC50 [7]: > 100 µM (inactive)
